Assays:
Doxorubicin = compound: COc1cccc2c1C(=O)c1c(O)c3c(c(O)c1C2=O)C[C@@](O)(C(=O)CO)C[C@@H]3O[C@H]1C[C@H](N)[C@H](O)[C@H](C)O1 [Doxorubicin]
BSJ-01-175 = compound: CN(C)C/C=C/C(=O)Nc1ccc(O[C@@H]2CCC[C@@H](Nc3ncc(Cl)c(-c4c[nH]c5ccccc45)n3)C2)cc1 [BSJ-01-175]
INK128/MLN0128 = compound: CC(C)n1nc(-c2ccc3oc(N)nc3c2)c2c(N)ncnc21 [INK128/MLN0128]
Taselisib/GDC0032 = compound: Cc1nc(-c2cn3c(n2)-c2ccc(-c4cnn(C(C)(C)C(N)=O)c4)cc2OCC3)n(C(C)C)n1 [Taselisib/GDC0032]
Ceritinib/LDK378 = compound: Cc1cc(Nc2ncc(Cl)c(Nc3ccccc3S(=O)(=O)C(C)C)n2)c(OC(C)C)cc1C1CCNCC1 [Ceritinib/LDK378]
BSJ-03-123 [1] = compound: T1, CC(=O)c1c(C)c2cnc(Nc3ccc(N4CCN(CCOCCOCCOCCNC(=O)COc5cccc6c5C(=O)N(C5CCC(=O)NC5=O)C6=O)CC4)cn3)nc2n(C2CCCC2)c1=O [BSJ-03-123]
Rucaparib = compound: CNCc1ccc(-c2[nH]c3cc(F)cc4c3c2CCNC4=O)cc1 [Rucaparib]
Vorinostat = compound: O=C(CCCCCCC(=O)Nc1ccccc1)NO [Vorinostat]
THZ531 [2] = compound: T2, CN(C)C/C=C/C(=O)Nc1ccc(C(=O)N2CCC[C@@H](Nc3ncc(Cl)c(-c4c[nH]c5ccccc45)n3)C2)cc1 [THZ531]
[3] = compound: CO[C@@H](C)Cn1c(=O)n(C)c2cnc3ccc(-c4cncc(C(C)(C)O)c4)cc3c21
[4] = compound: CC(=O)c1c(C)c2cnc(Nc3ccc(N4CCNCC4)cn3)nc2n(C2CCCC2)c1=O
Volasertib/BI6727 = compound: CC[C@@H]1C(=O)N(C)c2cnc(Nc3ccc(C(=O)N[C@H]4CC[C@H](N5CCN(CC6CC6)CC5)CC4)cc3OC)nc2N1C(C)C [Volasertib/BI6727]
Neratinib/HKI272 [5] = compound: T3, CCOc1cc2ncc(C#N)c(Nc3ccc(OCc4ccccn4)c(Cl)c3)c2cc1NC(=O)/C=C/CN(C)C [Neratinib/HKI272]
[6] = compound: CC(=O)Nc1cccc(-n2c(=O)n(C3CC3)c(=O)c3c(Nc4ccc(I)cc4F)n(C)c(=O)c(C)c32)c1
Dasatinib = compound: Cc1nc(Nc2ncc(C(=O)Nc3c(C)cccc3Cl)s2)cc(N2CCN(CCO)CC2)n1 [Dasatinib]
AZD2014 = compound: CNC(=O)c1cccc(-c2ccc3c(N4CCOC[C@@H]4C)nc(N4CCOC[C@@H]4C)nc3n2)c1 [AZD2014]
THZ1 = compound: CN(C)C/C=C/C(=O)Nc1ccc(C(=O)Nc2cccc(Nc3ncc(Cl)c(-c4c[nH]c5ccccc45)n3)c2)cc1 [THZ1]; assay: increase in dead-cell fraction, 72 h; higher = more death;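 further: breast cancer cell lines in 384-well plates, stained with Hoechst plus LIVE/DEAD far red dye and imaged, cells above an LDR intensity threshold counted dead, Hoechst-negative corpses included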
BSJ-03-123 [7] = compound: T1, BSJ-03-123; assay: as above
[8] = compound: CCc1cnn2c(NCc3ccc[n+]([O-])c3)cc(N3CCCC[C@H]3CCO)nc12; assay: as above
THZ531 [9] = compound: T2, THZ531; assay: as above
Neratinib/HKI272 [10] = compound: T3, Neratinib/HKI272; assay: as above
YKL-5-124 = compound: C=CC(=O)Nc1ccc(C(=O)Nc2[nH]nc3c2CN(C(=O)N[C@H](CN(C)C)c2ccccc2)C3(C)C)cc1 [YKL-5-124]; assay: as above
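Wherever GR50, 72 h is given: breast cancer and non-malignant breast epithelial cell lines, Deep Dye Drop or Dye Drop imaging, nine half-log doses, GR normalized to time-zero plates and DMSO-only controls.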

HCC202
GR50, 72 h (Doxorubicin): 0.0268 µM
GR50, 72 h (BSJ-01-175): 0.0167 µM
GR50, 72 h (INK128/MLN0128): 0.0112 µM
GR50, 72 h (Taselisib/GDC0032): 0.00366 µM
GR50, 72 h (Ceritinib/LDK378): 4.75 µM
GR50, 72 h (BSJ-03-123 [1]): 3.36 µM
GR50, 72 h (Rucaparib): > 10 µM
GR50, 72 h (Vorinostat): 3.57 µM
GR50, 72 h (THZ531 [2]): 0.0588 µM
GR50, 72 h [3]: 0.00541 µM
GR50, 72 h [4]: > 3.16 µM
GR50, 72 h (Volasertib/BI6727): 0.015 µM
GR50, 72 h (Neratinib/HKI272 [5]): 0.0317 µM
GR50, 72 h [6]: > 1 µM
GR50, 72 h (Dasatinib): 0.0186 µM
GR50, 72 h (AZD2014): 0.00237 µM
increase in dead-cell fraction (THZ1; 0.0001 µM): 0.0041
increase in dead-cell fraction (THZ1; 0.0003162 µM): -0.0036
increase in dead-cell fraction (THZ1; 0.001 µM): 0.0114
increase in dead-cell fraction (THZ1; 0.003162 µM): 0.0077
increase in dead-cell fraction (THZ1; 0.01 µM): 0.0009
increase in dead-cell fraction (THZ1; 0.03162 µM): 0.0391
increase in dead-cell fraction (THZ1; 0.1 µM): 0.0709
increase in dead-cell fraction (THZ1; 0.3162 µM): 0.103
increase in dead-cell fraction (THZ1; 1 µM): 0.164
increase in dead-cell fraction (BSJ-03-123 [7]; 0.001 µM): 0.0092
increase in dead-cell fraction (BSJ-03-123 [7]; 0.003162 µM): 0.0099
increase in dead-cell fraction (BSJ-03-123 [7]; 0.01 µM): 0.0404
increase in dead-cell fraction (BSJ-03-123 [7]; 0.03162 µM): 0.0154
increase in dead-cell fraction (BSJ-03-123 [7]; 0.1 µM): 0.0009
increase in dead-cell fraction (BSJ-03-123 [7]; 0.3162 µM): 0.0019
increase in dead-cell fraction (BSJ-03-123 [7]; 1 µM): 0.0243
increase in dead-cell fraction (BSJ-03-123 [7]; 3.162 µM): 0.0201
increase in dead-cell fraction (BSJ-03-123 [7]; 10 µM): 0.126
increase in dead-cell fraction ([8]; 0.0001 µM): 0.0056
increase in dead-cell fraction ([8]; 0.0003162 µM): 0.0103
increase in dead-cell fraction ([8]; 0.001 µM): -0.0029
increase in dead-cell fraction ([8]; 0.003162 µM): -0.0193
increase in dead-cell fraction ([8]; 0.01 µM): -0.0112
increase in dead-cell fraction ([8]; 0.03162 µM): 0.132
increase in dead-cell fraction ([8]; 0.1 µM): 0.106
increase in dead-cell fraction ([8]; 0.3162 µM): 0.122
increase in dead-cell fraction ([8]; 1 µM): 0.126
increase in dead-cell fraction (THZ531 [9]; 0.0001 µM): -0.0053
increase in dead-cell fraction (THZ531 [9]; 0.0003162 µM): 0.002
increase in dead-cell fraction (THZ531 [9]; 0.001 µM): -0.0003
increase in dead-cell fraction (THZ531 [9]; 0.003162 µM): -0.0311
increase in dead-cell fraction (THZ531 [9]; 0.01 µM): 0.0109
increase in dead-cell fraction (THZ531 [9]; 0.03162 µM): 0.0036
increase in dead-cell fraction (THZ531 [9]; 0.1 µM): 0.066
increase in dead-cell fraction (THZ531 [9]; 0.3162 µM): 0.128
increase in dead-cell fraction (THZ531 [9]; 1 µM): 0.088
increase in dead-cell fraction (Neratinib/HKI272 [10]; 0.0003162 µM): -0.0093
increase in dead-cell fraction (Neratinib/HKI272 [10]; 0.001 µM): -0.0087
increase in dead-cell fraction (Neratinib/HKI272 [10]; 0.003162 µM): 0.0183
increase in dead-cell fraction (Neratinib/HKI272 [10]; 0.01 µM): 0.0049
increase in dead-cell fraction (Neratinib/HKI272 [10]; 0.03162 µM): 0.0466
increase in dead-cell fraction (Neratinib/HKI272 [10]; 0.1 µM): 0.0644
increase in dead-cell fraction (Neratinib/HKI272 [10]; 0.3162 µM): 0.0996
increase in dead-cell fraction (Neratinib/HKI272 [10]; 1 µM): 0.103
increase in dead-cell fraction (Neratinib/HKI272 [10]; 3.162 µM): 0.136
increase in dead-cell fraction (YKL-5-124; 0.001 µM): 0.0491
increase in dead-cell fraction (YKL-5-124; 0.003162 µM): 0.0507
increase in dead-cell fraction (YKL-5-124; 0.01 µM): 0.0643
increase in dead-cell fraction (YKL-5-124; 0.03162 µM): 0.0596
increase in dead-cell fraction (YKL-5-124; 0.1 µM): 0.0803
increase in dead-cell fraction (YKL-5-124; 0.3162 µM): 0.0716
increase in dead-cell fraction (YKL-5-124; 1 µM): 0.0671
increase in dead-cell fraction (YKL-5-124; 3.162 µM): 0.081
increase in dead-cell fraction (YKL-5-124; 10 µM): 0.213

From the supplement of paper PMC9663587
